Experimental data taken from ChEMBL document CHEMBL5723379, “Affinity On-target Cellular Literature for EUbOPEN Chemogenomic Library” (2024).
Each block holds one compound with its values, some of them ahead of it.

Experiments:
[1] = biological target: T1, Peroxisome proliferator-activated receptor gamma (Homo sapiens, UniProt P37231); assay: Affinity On-target Cellular interaction: (Reporter gene assay (HEK293T cells)) EUB0001150a PPARG; assay type: functional, cell-based, HEK-293T; parameters: mode of action Antagonist, recommended concentration 10 uM
T1 sequence (P37231 whole entry): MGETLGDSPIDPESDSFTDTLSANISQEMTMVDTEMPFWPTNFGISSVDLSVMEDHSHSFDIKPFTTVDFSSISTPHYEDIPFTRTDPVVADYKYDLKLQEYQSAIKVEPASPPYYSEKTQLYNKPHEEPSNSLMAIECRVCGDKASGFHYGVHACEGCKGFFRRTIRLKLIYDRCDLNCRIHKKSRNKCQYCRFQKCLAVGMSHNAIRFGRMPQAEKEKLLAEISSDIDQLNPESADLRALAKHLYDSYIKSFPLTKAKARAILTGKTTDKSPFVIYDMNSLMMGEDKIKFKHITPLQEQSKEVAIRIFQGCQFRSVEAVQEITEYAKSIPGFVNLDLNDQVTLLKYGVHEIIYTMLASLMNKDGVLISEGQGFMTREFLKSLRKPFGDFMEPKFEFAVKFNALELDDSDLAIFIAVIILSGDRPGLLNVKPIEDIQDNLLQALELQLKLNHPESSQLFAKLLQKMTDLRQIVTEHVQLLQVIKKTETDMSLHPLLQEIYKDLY

[2] = biological target: T2, Peroxisome proliferator-activated receptor alpha (Homo sapiens, UniProt Q07869); assay: Affinity On-target Cellular interaction: (Reporter gene assay (HEK293T cells)) EUB0001150a PPARA; assay type: functional, cell-based, HEK-293T; parameters: mode of action Antagonist, recommended concentration 10 uM
T2 sequence (Q07869 whole entry): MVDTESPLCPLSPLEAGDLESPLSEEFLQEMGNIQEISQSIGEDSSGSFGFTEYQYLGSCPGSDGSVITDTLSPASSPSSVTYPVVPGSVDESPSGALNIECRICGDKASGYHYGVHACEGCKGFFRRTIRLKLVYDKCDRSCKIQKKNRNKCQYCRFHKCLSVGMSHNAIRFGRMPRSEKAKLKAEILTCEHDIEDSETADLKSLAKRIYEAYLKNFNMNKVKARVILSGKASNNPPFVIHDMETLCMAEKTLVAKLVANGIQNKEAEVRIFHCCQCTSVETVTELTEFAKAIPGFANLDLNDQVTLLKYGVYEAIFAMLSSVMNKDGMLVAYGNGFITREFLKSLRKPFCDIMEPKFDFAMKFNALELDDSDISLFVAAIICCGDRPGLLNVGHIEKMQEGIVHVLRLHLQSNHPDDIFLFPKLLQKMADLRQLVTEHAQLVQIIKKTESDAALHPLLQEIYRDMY

[3] = biological target: T3, Oxysterols receptor LXR-alpha (Homo sapiens, UniProt Q13133); assay: Affinity On-target Cellular interaction: (Reporter gene assay (HEK293T cells)) EUB0000183b NR1H3; assay type: functional, cell-based, HEK-293T; parameters: mode of action Antagonist, recommended concentration 3 uM
T3 sequence (Q13133 whole entry): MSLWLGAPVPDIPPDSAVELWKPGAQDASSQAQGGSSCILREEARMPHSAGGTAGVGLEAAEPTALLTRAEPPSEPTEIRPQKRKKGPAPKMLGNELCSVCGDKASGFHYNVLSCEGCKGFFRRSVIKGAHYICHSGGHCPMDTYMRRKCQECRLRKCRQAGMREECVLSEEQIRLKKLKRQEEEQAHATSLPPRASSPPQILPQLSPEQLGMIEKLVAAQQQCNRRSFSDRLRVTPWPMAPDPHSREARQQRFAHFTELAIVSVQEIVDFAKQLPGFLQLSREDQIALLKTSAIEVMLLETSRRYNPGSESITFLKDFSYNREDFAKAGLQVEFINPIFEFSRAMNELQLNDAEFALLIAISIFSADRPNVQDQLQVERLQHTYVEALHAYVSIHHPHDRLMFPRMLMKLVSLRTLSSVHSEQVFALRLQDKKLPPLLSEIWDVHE

[4] = biological target: T4, Oxysterols receptor LXR-beta (Homo sapiens, UniProt P55055); assay: Affinity On-target Cellular interaction: (Reporter gene assay (HEK293T cells)) EUB0000183b NR1H2; assay type: functional, cell-based, HEK-293T; parameters: mode of action Antagonist, recommended concentration 3 uM
T4 sequence (P55055 whole entry): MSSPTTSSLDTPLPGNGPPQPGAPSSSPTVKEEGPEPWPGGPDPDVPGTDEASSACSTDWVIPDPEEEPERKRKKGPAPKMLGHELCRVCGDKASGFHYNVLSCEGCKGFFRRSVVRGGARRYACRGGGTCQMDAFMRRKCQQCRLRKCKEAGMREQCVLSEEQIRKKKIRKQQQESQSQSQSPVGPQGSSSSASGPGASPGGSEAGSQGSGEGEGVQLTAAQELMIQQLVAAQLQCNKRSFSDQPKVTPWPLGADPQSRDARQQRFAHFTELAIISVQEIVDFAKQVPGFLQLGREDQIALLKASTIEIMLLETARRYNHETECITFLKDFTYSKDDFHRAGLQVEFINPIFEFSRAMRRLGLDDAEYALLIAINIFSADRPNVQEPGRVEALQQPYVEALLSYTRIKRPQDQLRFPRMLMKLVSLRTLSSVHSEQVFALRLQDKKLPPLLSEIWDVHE

[5] = biological target: T4, Oxysterols receptor LXR-beta; assay: Affinity On-target Cellular interaction: (Reporter gene assay (HEK293T cells)) EUB0000572aCl NR1H2; assay type: functional, cell-based, HEK-293T; parameters: mode of action Agonist, recommended concentration 3 uM
[6] = biological target: T5, Peroxisome proliferator-activated receptor delta (Homo sapiens, UniProt Q03181)
T5 sequence (Q03181 whole entry): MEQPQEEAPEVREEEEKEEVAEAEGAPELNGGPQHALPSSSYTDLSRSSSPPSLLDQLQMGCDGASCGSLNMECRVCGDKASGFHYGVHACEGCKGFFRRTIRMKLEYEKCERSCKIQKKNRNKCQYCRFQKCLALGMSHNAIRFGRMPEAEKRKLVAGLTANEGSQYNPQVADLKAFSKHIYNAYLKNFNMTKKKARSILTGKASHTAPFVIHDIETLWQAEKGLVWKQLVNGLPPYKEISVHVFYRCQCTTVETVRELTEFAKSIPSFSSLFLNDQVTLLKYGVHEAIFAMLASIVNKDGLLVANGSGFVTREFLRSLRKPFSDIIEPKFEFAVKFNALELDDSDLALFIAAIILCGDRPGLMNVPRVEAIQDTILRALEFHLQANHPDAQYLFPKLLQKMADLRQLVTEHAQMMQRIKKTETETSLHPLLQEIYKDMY

[7] = biological target: T5, Peroxisome proliferator-activated receptor delta; assay: Affinity On-target Cellular interaction: (Reporter gene assay (HEK293T cells)) EUB0000188b PPARD; assay type: functional, cell-based, HEK-293T; parameters: mode of action Agonist, recommended concentration 1 uM
[8] = biological target: T1, Peroxisome proliferator-activated receptor gamma; assay: Affinity On-target Cellular interaction: (Reporter gene assay (HEK293T cells)) EUB0000188b PPARG; assay type: functional, cell-based, HEK-293T; parameters: mode of action Agonist, recommended concentration 1 uM
[9] = biological target: T2, Peroxisome proliferator-activated receptor alpha; assay: Affinity On-target Cellular interaction: (Reporter gene assay (HEK293T cells)) EUB0000188b PPARA; assay type: functional, cell-based, HEK-293T; parameters: mode of action Agonist, recommended concentration 1 uM
[10] = biological target: T2, Peroxisome proliferator-activated receptor alpha; assay: Affinity On-target Cellular interaction: (Reporter gene assay (HEK293T cells)) EUB0001140a PPARA; assay type: functional, cell-based, HEK-293T; parameters: mode of action Agonist, recommended concentration 1 uM
[11] = biological target: T2, Peroxisome proliferator-activated receptor alpha; assay: Affinity On-target Cellular interaction: (Reporter gene assay (HEK293T cells)) EUB0001144a PPARA; assay type: functional, cell-based, HEK-293T; parameters: mode of action Agonist, recommended concentration 1 uM
[12] = biological target: T1, Peroxisome proliferator-activated receptor gamma; assay: Affinity On-target Cellular interaction: (Reporter gene assay (HEK293T cells)) EUB0001144a PPARG; assay type: functional, cell-based, HEK-293T; parameters: mode of action Agonist, recommended concentration 1 uM
[13] = biological target: T5, Peroxisome proliferator-activated receptor delta; assay: Affinity On-target Cellular interaction: (Reporter gene assay (HEK293T cells)) EUB0001151a PPARD; assay type: functional, cell-based, HEK-293T; parameters: mode of action Antagonist, recommended concentration 1 uM
[14] = biological target: Retinoic acid receptor alpha (Homo sapiens, UniProt P10276); assay: Affinity On-target Cellular interaction: (Reporter gene assay (HEK293T cells)) EUB0000565a RARA; assay type: functional, cell-based, HEK-293T; parameters: mode of action Agonist, recommended concentration 1 uM
Chain of Retinoic acid receptor alpha (P10276 whole entry): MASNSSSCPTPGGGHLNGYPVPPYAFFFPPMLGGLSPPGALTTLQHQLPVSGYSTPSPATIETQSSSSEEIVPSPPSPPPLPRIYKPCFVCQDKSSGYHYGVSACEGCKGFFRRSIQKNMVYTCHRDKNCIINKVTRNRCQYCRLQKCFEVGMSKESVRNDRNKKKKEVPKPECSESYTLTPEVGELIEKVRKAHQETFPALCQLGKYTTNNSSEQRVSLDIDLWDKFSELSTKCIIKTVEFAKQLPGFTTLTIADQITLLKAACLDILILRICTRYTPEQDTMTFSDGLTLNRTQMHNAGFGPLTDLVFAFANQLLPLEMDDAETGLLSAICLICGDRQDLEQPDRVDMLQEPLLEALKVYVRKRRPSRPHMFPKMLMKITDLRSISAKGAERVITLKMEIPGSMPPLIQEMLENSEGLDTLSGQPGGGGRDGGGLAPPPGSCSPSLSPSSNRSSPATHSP

[15] = biological target: Nuclear receptor subfamily 1 group I member 3 (Homo sapiens, UniProt Q14994); assay: Affinity On-target Cellular interaction: (Reporter gene assay (HEK293T cells)) EUB0000551aCl NR1I3; assay type: functional, cell-based, HEK-293T; parameters: mode of action Antagonist, recommended concentration 1 uM
Chain of Nuclear receptor subfamily 1 group I member 3 (Q14994 whole entry): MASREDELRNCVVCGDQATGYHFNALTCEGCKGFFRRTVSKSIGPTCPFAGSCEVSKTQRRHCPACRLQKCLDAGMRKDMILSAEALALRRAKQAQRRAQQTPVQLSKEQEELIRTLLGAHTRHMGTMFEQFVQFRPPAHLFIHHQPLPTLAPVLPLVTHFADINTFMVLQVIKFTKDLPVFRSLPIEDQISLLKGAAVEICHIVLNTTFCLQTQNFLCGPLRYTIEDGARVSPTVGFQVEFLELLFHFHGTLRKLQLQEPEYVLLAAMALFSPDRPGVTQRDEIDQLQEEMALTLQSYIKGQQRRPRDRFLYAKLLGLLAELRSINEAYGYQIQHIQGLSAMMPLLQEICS

[16] = biological target: Vitamin D3 receptor (Homo sapiens, UniProt P11473); assay: Affinity On-target Cellular interaction: (Reporter gene assay (HEK293T cells)) EUB0000582a VDR; assay type: functional, cell-based, HEK-293T; parameters: mode of action Agonist, recommended concentration 1 uM
Chain of Vitamin D3 receptor (P11473 whole entry): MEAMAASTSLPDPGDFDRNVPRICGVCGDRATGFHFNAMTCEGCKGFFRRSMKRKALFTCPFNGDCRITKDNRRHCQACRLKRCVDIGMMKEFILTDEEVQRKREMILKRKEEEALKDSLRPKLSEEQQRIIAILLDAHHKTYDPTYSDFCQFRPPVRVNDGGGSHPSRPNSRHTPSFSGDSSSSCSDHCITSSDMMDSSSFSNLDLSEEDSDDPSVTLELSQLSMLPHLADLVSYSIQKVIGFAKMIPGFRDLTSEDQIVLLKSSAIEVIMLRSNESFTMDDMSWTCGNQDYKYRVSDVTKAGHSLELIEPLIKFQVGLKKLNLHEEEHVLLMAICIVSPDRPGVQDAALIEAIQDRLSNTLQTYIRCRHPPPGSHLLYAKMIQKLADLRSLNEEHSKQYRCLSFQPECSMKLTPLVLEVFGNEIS

[17] = biological target: T1, Peroxisome proliferator-activated receptor gamma; assay: Affinity On-target Cellular interaction: (Reporter gene assay (HEK293T cells)) EUB0001143a PPARG; assay type: functional, cell-based, HEK-293T; parameters: mode of action Agonist, recommended concentration 1 uM

IC50 [3]: 100 nM
IC50 [4]: 40 nM
Compound: Cc1cc(C)c(S(=O)(=O)N(Cc2ccc(-c3cccc(S(C)(=O)=O)c3)cc2)Cc2ccc(C(F)(F)F)o2)c(C)c1

EC50 [11]: 290 nM
EC50 [12]: 130 nM
Compound: CCO[C@@H](Cc1ccc(OCCc2ccc(OS(C)(=O)=O)cc2)cc1)C(=O)O [TESAGLITAZAR]

IC50 [13]: 100 nM
Compound: O=C(NCCS(=O)(=O)c1ccc(C(F)(F)F)cn1)c1ccc(Cl)cc1

EC50 [16]: 110 nM
Compound: C=C1/C(=C\C=C2/CCC[C@]3(C)[C@@H]([C@H](C)/C=C/C=C/C(O)(CC)CC)CC[C@@H]23)C[C@@H](O)C[C@@H]1O [SEOCALCITOL]

Continued, compound first:

Compound: COC(=O)c1sccc1S(=O)(=O)Nc1ccc(Nc2ccccc2)cc1OC
IC50 [1]: 7600 nM
IC50 [2]: 6100 nM

Compound: O=C(O)Cc1cccc(OCCCN(Cc2cccc(C(F)(F)F)c2Cl)CC(c2ccccc2)c2ccccc2)c1
EC50 [5]: 2100 nM

Compound: O=C(O)CCCc1cc2cc(Cl)ccc2n1S(=O)(=O)c1ccc2ncsc2c1 [LANIFIBRANOR]
EC50 [6]: 900 nM

Compound: CCCc1c(OCCCOc2ccc(OCC(=O)O)cc2)ccc(C(C)=O)c1O
EC50 [7]: 15 nM
EC50 [8]: 980 nM
EC50 [9]: 1000 nM

Compound: COc1ccc(OC(=O)N(CC(=O)O)Cc2ccc(OCCc3nc(-c4ccccc4)oc3C)cc2)cc1 [MURAGLITAZAR]
EC50 [10]: 50 nM

Compound: CC1(C)C(=O)C(C)(C)c2cc(C(=O)Nc3ccc(C(=O)O)cc3)ccc21
EC50 [14]: 110 nM

Compound: Cc1cccc(CN2CCN(C(c3ccccc3)c3ccc(Cl)cc3)CC2)c1 (configuration not stated)
IC50 [15]: 63 nM

Compound: COc1cc2c(cc1CC=C(C)C)C(=O)C[C@@H](c1ccc(O)cc1)O2 [BAVACHININ A]
EC50 [17]: 730 nM
